Consider 27 molecules from patent US20120270884A1, “Methods of Treating Aneurysmal Dilatation, Blood Vessel Wall Weakness and Specifically Abdominal Aortic and Thoracic Aneurysm Using Matrix Metalloprotease-2 Inhibitors” (SYMPHONY EVOLUTION, INC., priority 2009, published 2012).

The structures appear in SMILES notation.

The IC50 is the concentration that inhibits the measured activity by half. The low end stands for higher potency, the high end for lower potency.

Format in all cases: biochemical
Test [1] addresses T1, MMP-1 (Fibroblast collagenase) (Homo sapiens, UniProt P03956).
T1 sequence (P03956 100-469): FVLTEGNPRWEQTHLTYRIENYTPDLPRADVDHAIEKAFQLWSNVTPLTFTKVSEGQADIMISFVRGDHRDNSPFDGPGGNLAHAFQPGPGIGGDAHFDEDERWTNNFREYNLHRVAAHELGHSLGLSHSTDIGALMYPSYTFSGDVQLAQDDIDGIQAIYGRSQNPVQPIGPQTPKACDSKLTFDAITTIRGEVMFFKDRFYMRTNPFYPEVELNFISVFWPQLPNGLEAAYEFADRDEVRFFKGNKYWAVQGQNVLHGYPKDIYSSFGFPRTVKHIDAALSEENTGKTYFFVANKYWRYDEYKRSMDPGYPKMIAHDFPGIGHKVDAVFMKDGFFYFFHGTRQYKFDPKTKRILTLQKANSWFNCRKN
The test is described as follows: In vitro metalloprotease inhibition, MMP-1. An excerpt:
(§1) Blank cells indicate lack of data only.

Test [2] deals with T2, MMP-2 (72 kDa gelatinase, gelatinase A) (Homo sapiens, UniProt P08253).
T2 sequence (P08253 110-660): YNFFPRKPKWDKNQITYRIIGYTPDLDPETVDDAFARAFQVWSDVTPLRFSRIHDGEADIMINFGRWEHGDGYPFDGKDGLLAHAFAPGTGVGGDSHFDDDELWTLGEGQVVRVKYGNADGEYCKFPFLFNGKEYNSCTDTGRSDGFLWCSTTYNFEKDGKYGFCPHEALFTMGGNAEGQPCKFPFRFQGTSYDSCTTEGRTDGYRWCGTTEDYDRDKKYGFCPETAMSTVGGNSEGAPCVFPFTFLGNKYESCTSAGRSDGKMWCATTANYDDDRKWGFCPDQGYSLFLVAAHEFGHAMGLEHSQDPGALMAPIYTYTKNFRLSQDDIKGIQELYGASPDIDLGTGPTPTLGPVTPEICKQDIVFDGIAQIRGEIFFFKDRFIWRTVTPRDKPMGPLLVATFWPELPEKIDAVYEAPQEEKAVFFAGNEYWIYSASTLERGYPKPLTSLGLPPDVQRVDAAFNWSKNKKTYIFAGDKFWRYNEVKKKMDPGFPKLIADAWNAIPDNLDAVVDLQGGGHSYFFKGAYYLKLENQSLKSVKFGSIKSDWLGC
The test is described as follows: In vitro metalloprotease inhibition, MMP-2.

The target in a further test is MMP-3 (Stromelysin-1) (Homo sapiens, UniProt P08254). Briefly: In vitro metalloprotease inhibition, MMP-3.
Excerpt: as §1

The target in another test is MMP-13 (collagenase-3) (Homo sapiens, UniProt P45452). Briefly: In vitro metalloprotease inhibition, MMP-13.

Chain of MMP-3 (Stromelysin-1) (P08254 100-477, species assumed): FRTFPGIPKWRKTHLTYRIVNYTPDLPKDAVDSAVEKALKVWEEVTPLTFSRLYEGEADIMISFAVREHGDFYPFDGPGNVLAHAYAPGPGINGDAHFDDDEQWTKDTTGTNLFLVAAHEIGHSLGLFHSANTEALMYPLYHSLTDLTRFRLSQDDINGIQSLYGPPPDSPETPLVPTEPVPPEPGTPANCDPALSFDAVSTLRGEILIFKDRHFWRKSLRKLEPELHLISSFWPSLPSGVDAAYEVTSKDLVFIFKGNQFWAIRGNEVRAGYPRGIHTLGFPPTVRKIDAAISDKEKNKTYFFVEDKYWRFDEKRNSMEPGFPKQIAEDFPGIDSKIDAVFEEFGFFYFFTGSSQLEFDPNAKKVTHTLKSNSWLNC

For the molecule `COCCOC(=O)N1CCN(S(=O)(=O)c2ccc(Oc3ccc(F)cc3)cc2)[C@@H](C(=O)NO)C1` [Entry 1], the IC50 (in test [1]; in test [2]; against MMP-3 (Stromelysin-1); against MMP-13 (collagenase-3)) was less than 50 nM in each case.

As for `O=C(NO)[C@H]1CN(C(=O)N2CCOCC2)CCN1S(=O)(=O)c1ccc(Oc2ccc(F)cc2)cc1` [Entry 2], the IC50 (in test [1]; in test [2]; on MMP-3 (Stromelysin-1); against MMP-13 (collagenase-3)) was less than 50 nM in each case.

For `COCCOC(=O)N1CCN(S(=O)(=O)c2ccc(Oc3ccc(F)cc3)c(F)c2)[C@@H](C(=O)NO)C1` [Entry 3], the IC50 in test [1] is 50 to 1000 nM; in test [2], less than 50 nM; against MMP-3 (Stromelysin-1), 1000 to 20000 nM; on MMP-13 (collagenase-3) it was less than 50 nM.

Turning to `COCCOC(=O)N1CCN(S(=O)(=O)c2ccc(Oc3ccc(Cl)cc3)c(F)c2)[C@@H](C(=O)NO)C1` [Entry 4], the IC50 in test [1] was 50 to 1000 nM; in test [2], less than 50 nM; at MMP-3 (Stromelysin-1) it was less than 50 nM; against MMP-13 (collagenase-3), less than 50 nM.

Turning to `COCCOC(=O)N1CCN(S(=O)(=O)c2ccc(Oc3ccc(C#N)cc3)c(F)c2)[C@@H](C(=O)NO)C1` [Entry 5], the IC50 in test [1] is 50 to 1000 nM; in test [2], less than 50 nM; against MMP-3 (Stromelysin-1), 50 to 1000 nM; against MMP-13 (collagenase-3) it was less than 50 nM.

Consider `O=C(NO)[C@H]1CN(C(=O)N2CCOCC2)CCN1S(=O)(=O)c1ccc(Oc2ccc(Cl)cc2)c(F)c1` [Entry 6], for which the IC50 in test [1] is 50 to 1000 nM; in test [2], less than 50 nM; against MMP-3 (Stromelysin-1), less than 50 nM; against MMP-13 (collagenase-3), less than 50 nM.

Regarding `N#Cc1ccc(Oc2ccc(S(=O)(=O)N3CCN(C(=O)N4CCOCC4)C[C@@H]3C(=O)NO)cc2F)cc1` [Entry 7], the IC50 in test [1] is 50 to 1000 nM; in test [2] it was less than 50 nM; at MMP-3 (Stromelysin-1) it was less than 50 nM; on MMP-13 (collagenase-3) it was less than 50 nM.

Consider `O=C(NO)[C@H]1CN(C(=O)N2CCOCC2)CCN1S(=O)(=O)c1ccc(Oc2ccc(F)cc2)c(F)c1` [Entry 8], for which the IC50 in test [1] is 50 to 1000 nM; in test [2], less than 50 nM; against MMP-3 (Stromelysin-1), less than 50 nM; against MMP-13 (collagenase-3), less than 50 nM.

With `CC(C)(C)OC(=O)N1CCN(S(=O)(=O)c2cc(F)c(Oc3ccc(F)cc3)c(F)c2)[C@@H](C(=O)NO)C1` [Entry 9], the IC50 in test [1] is 1000 to 20000 nM; in test [2], less than 50 nM; against MMP-3 (Stromelysin-1) it was 1000 to 20000 nM; against MMP-13 (collagenase-3), 1000 to 20000 nM.

Take `COCCOC(=O)N1CCN(S(=O)(=O)c2cc(F)c(Oc3ccc(F)cc3)c(F)c2)[C@@H](C(=O)NO)C1` [Entry 10]: the IC50 in test [1] was 1000 to 20000 nM; in test [2] it was less than 50 nM; on MMP-3 (Stromelysin-1), 1000 to 20000 nM; against MMP-13 (collagenase-3) it was less than 50 nM.

For the molecule `O=C(NO)[C@H]1CNCCN1S(=O)(=O)c1cc(F)c(Oc2ccc(F)cc2)c(F)c1` [Entry 11], the IC50 is more than 20000 nM in test [1], 50 to 1000 nM in test [2], 1000 to 20000 nM on MMP-3 (Stromelysin-1) and more than 20000 nM against MMP-13 (collagenase-3).

`O=C(NO)[C@H]1CN(C(=O)N2CCOCC2)CCN1S(=O)(=O)c1cc(F)c(Oc2ccc(F)cc2)c(F)c1` [Entry 12]: the IC50 in test [1] is 1000 to 20000 nM; in test [2] it was less than 50 nM; against MMP-3 (Stromelysin-1), 50 to 1000 nM; on MMP-13 (collagenase-3), less than 50 nM.

With `CCOC(=O)N1CCN(S(=O)(=O)c2cc(F)c(Oc3ccc(F)cc3)c(F)c2)[C@@H](C(=O)NO)C1` [Entry 13], the IC50 is 1000 to 20000 nM in test [1], less than 50 nM in test [2], 50 to 1000 nM at MMP-3 (Stromelysin-1) and less than 50 nM against MMP-13 (collagenase-3).

Consider `CN1CCN(S(=O)(=O)c2cc(F)c(Oc3ccc(F)cc3)c(F)c2)[C@@H](C(=O)NO)C1` [Entry 14], for which the IC50 in test [1] is more than 20000 nM; in test [2], less than 50 nM; at MMP-3 (Stromelysin-1) it was more than 20000 nM; against MMP-13 (collagenase-3) it was less than 50 nM.

`CN1CCN(C(=O)N2CCN(S(=O)(=O)c3cc(F)c(Oc4ccc(Cl)cc4)c(F)c3)[C@@H](C(=O)NO)C2)CC1` [Entry 16]: the IC50 in test [1] is more than 20000 nM; in test [2], less than 50 nM; against MMP-3 (Stromelysin-1) it was 1000 to 20000 nM; against MMP-13 (collagenase-3), less than 50 nM.

On to `O=C(NO)[C@H]1CN(C(=O)NCCN2CCCC2)CCN1S(=O)(=O)c1cc(F)c(Oc2ccc(Cl)cc2)c(F)c1` [Entry 17], for which the IC50 in test [1] is 1000 to 20000 nM; in test [2], less than 50 nM; against MMP-3 (Stromelysin-1) it was 50 to 1000 nM; on MMP-13 (collagenase-3), less than 50 nM.

In the case of `O=C(NO)[C@H]1CN(C(=O)OCCN2CCCC2)CCN1S(=O)(=O)c1cc(F)c(Oc2ccc(Cl)cc2)c(F)c1` [Entry 18], the IC50 in test [1] is more than 20000 nM; in test [2], less than 50 nM; at MMP-3 (Stromelysin-1), 50 to 1000 nM; on MMP-13 (collagenase-3), less than 50 nM.

Take `CNC(=O)CN1CCN(S(=O)(=O)c2cc(F)c(Oc3ccc(Cl)cc3)c(F)c2)[C@@H](C(=O)NO)C1` [Entry 19]: the IC50 in test [1] was more than 20000 nM; in test [2], less than 50 nM; against MMP-3 (Stromelysin-1) it was 50 to 1000 nM; at MMP-13 (collagenase-3), less than 50 nM.

For the molecule `CN(C)C(=O)CN1CCN(S(=O)(=O)c2cc(F)c(Oc3ccc(Cl)cc3)c(F)c2)[C@@H](C(=O)NO)C1` [Entry 20], the IC50 was more than 20000 nM in test [1], less than 50 nM in test [2], 1000 to 20000 nM against MMP-3 (Stromelysin-1) and less than 50 nM at MMP-13 (collagenase-3).

For the molecule `O=C(NO)[C@H]1CN(CC(=O)N2CCCC2)CCN1S(=O)(=O)c1cc(F)c(Oc2ccc(Cl)cc2)c(F)c1` [Entry 21], the IC50 in test [1] is more than 20000 nM; in test [2], less than 50 nM; on MMP-3 (Stromelysin-1), 1000 to 20000 nM; against MMP-13 (collagenase-3), 50 to 1000 nM.

Turning to `CN1CCC(OC(=O)N2CCN(S(=O)(=O)c3cc(F)c(Oc4ccc(Cl)cc4)c(F)c3)[C@@H](C(=O)NO)C2)CC1` [Entry 22], the IC50 in test [1] was 1000 to 20000 nM; in test [2], less than 50 nM; at MMP-3 (Stromelysin-1), 50 to 1000 nM; against MMP-13 (collagenase-3) it was less than 50 nM.

Consider `CCOC(=O)N1CCN(CC(=O)N2CCN(S(=O)(=O)c3cc(F)c(Oc4ccc(Cl)cc4)c(F)c3)[C@@H](C(=O)NO)C2)CC1` [Entry 23], for which the IC50 in test [1] is more than 20000 nM; in test [2] it was less than 50 nM; on MMP-3 (Stromelysin-1), 1000 to 20000 nM; at MMP-13 (collagenase-3), less than 50 nM.

As to `CN1CCN(CC(=O)N2CCN(S(=O)(=O)c3cc(F)c(Oc4ccc(Cl)cc4)c(F)c3)[C@@H](C(=O)NO)C2)CC1` [Entry 24], the IC50 was more than 20000 nM in test [1], less than 50 nM in test [2], 1000 to 20000 nM against MMP-3 (Stromelysin-1) and less than 50 nM against MMP-13 (collagenase-3).

For `O=C(NO)[C@H]1CN(C(=O)CN2CCOCC2)CCN1S(=O)(=O)c1cc(F)c(Oc2ccc(Cl)cc2)c(F)c1` [Entry 25], the IC50 in test [1] is more than 20000 nM; in test [2], less than 50 nM; at MMP-3 (Stromelysin-1), 50 to 1000 nM; against MMP-13 (collagenase-3), less than 50 nM.

As for `O=C(NO)[C@H]1CN(C(=O)CN2CCCCC2)CCN1S(=O)(=O)c1cc(F)c(Oc2ccc(Cl)cc2)c(F)c1` [Entry 26], the 50% inhibitory concentration (IC50) in test [1] is more than 20000 nM; in test [2], less than 50 nM; on MMP-3 (Stromelysin-1) it was 1000 to 20000 nM; at MMP-13 (collagenase-3), less than 50 nM.

Regarding `O=C(NO)[C@H]1CN(C(=O)OCCN2CCCCC2)CCN1S(=O)(=O)c1cc(F)c(Oc2ccc(Cl)cc2)c(F)c1` [Entry 27], the IC50 in test [1] is 1000 to 20000 nM; in test [2], less than 50 nM; at MMP-3 (Stromelysin-1) it was 50 to 1000 nM; on MMP-13 (collagenase-3), less than 50 nM.

As for `CS(=O)(=O)N1CCN(S(=O)(=O)c2cc(F)c(Oc3ccc(Cl)cc3)c(F)c2)[C@@H](C(=O)NO)C1` [Entry 28], the IC50 in test [1] was 50 to 1000 nM; in test [2], less than 50 nM; at MMP-3 (Stromelysin-1), 50 to 1000 nM; on MMP-13 (collagenase-3), less than 50 nM.
